Target: T1, USP25 (USP25-His6, Boston Biochem E-546) (Homo sapiens, UniProt Q9UHP3)
T1 construct: His6; purchased Boston Biochem E-546
T1 sequence (Q9UHP3 1-1055): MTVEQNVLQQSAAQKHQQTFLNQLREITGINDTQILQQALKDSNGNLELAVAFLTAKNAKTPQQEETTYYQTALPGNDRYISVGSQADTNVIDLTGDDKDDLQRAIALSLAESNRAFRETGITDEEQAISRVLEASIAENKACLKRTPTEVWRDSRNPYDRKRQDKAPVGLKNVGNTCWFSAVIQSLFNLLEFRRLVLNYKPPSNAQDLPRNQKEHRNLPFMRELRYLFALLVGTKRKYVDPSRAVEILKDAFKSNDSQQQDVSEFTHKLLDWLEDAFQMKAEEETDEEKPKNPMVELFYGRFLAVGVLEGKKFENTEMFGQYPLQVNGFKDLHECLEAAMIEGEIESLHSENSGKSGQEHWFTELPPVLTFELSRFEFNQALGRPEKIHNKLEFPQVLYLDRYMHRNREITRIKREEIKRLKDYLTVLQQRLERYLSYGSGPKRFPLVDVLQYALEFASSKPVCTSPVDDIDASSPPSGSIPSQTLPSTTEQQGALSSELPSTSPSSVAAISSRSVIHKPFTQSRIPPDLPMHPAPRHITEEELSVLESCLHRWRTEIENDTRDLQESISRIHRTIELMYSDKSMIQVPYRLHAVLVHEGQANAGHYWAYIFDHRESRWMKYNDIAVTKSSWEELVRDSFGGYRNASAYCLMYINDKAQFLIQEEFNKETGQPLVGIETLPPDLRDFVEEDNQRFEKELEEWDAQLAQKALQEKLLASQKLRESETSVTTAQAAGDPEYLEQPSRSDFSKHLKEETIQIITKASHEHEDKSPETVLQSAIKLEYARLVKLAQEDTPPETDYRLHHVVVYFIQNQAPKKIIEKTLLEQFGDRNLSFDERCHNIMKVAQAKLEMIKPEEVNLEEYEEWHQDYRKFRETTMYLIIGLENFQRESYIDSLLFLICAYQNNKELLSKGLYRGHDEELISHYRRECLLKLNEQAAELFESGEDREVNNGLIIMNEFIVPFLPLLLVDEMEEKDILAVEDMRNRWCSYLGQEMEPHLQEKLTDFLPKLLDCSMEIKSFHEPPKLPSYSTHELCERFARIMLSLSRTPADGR
Assay: Ubiquitin-Rhodamine 110 Assay for USP25 Activity, Example A-2
Format: biochemical
Conditions: Ubiquitin-Rhodamine 110 assay, Example A-2; read-out: USP25 A-2 IC50 range
How it was run: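 Read-out: Rh110 fluorescence (ex 485, em 535 nm) after 45 min RT turnover of 25 nM Ub-Rh110 by 75 pM USP25-His6, quenched with 10 mM citric acid. Compounds at 25 μM–1.3 nM, preincubated 30 min with enzyme. IC50 from 4-parameter logistic fit.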

Structure (SMILES)	IC50
Cc1ccc2c(N)c(C(=O)N[C@H]3COc4cc(N5C6CNCC5COC6)ccc4C3)sc2n1 [Example 209, 3-amino-6-methyl-N-[(3R)-7-{3-oxa-7,9-diazabicyclo[3.3.1]nonan-9-yl}-3,4-dihydro-2H-1-benzopyran-3-yl]thieno[2,3-b]pyridine-2-carboxamide]	0.001 to 0.05 µM
N#Cc1c(N2CC3CCC(C2)N3)cc(F)c2c1CC[C@@H](NC(=O)c1cnc3c(c1)[C@H]1C[C@H]1CN3)C2 [Example 198, (6aR,7aS)-N-[(2R)-5-cyano-6-{3,8-diazabicyclo[3.2.1]octan-3-yl}-8-fluoro-1,2,3,4-tetrahydronaphthalen-2-yl]-5H,6H,6aH,7H,7aH-cyclopropa[c]1,8-naphthyridine-2-carboxamide]	0.2 to 2 µM
CO[C@H]1CN(c2ccc3c(c2)CC[C@H](NC(=O)c2cnc4c(c2)[C@H]2C[C@H]2CN4)C3)C[C@@H]1N [Example 190, (6aR,7aS)-N-[(2S)-6-[(3S,4S)-3-amino-4-methoxypyrrolidin-1-yl]-1,2,3,4-tetrahydronaphthalen-2-yl]-5H,6H,6aH,7H,7aH-cyclopropa[c]1,8-naphthyridine-2-carboxamide]	> 2 µM
CO[C@H]1CN(c2ccc3c(n2)OC[C@H](NC(=O)c2sc4nc(C)cnc4c2N)C3)C[C@@H]1N [Example 181, 7-amino-N-[(3R)-7-[(3S,4S)-3-amino-4-methoxypyrrolidin-1-yl]-2H,3H,4H-pyrano[2,3-b]pyridin-3-yl]-3-methylthieno[2,3-b]pyrazine-6-carboxamide]	> 2 µM
Cc1cc(C)c2c(N)c(C(=O)N[C@H]3CCc4nc(N5CC[C@H]6CNC[C@H]65)ccc4C3)sc2n1 [Example 218, N-[(6S)-2-[(3aS 6aS)-octahydropyrrolo[2,3-c]pyrrol-1-yl]-5,6,7,8-tetrahydroquinolin-6-yl]-3-amino-4,6-dimethylthieno[2,3-b]pyridine-2-carboxamide]	0.2 to 2 µM
O=C(N[C@@H]1CCc2cc(N3CC4CCC(C3)N4)cc(F)c2C1)c1cnc2c(c1)[C@@H]1C[C@@H]1CN2 [Example 193, (6aS,7aR)-N-[(2R)-6-{3,8-diazabicyclo[3.2.1]octan-3-yl}-8-fluoro-1,2,3,4-tetrahydronaphthalen-2-yl]-5H,6H,6aH,7H,7aH-cyclopropa[c]1,8-naphthyridine-2-carboxamide]	> 2 µM
Cc1cc(C)c2c(N)c(C(=O)N[C@H]3COc4cc(N5CC[C@H]6CNC[C@H]65)cc(F)c4C3)sc2n1 (single isomer, unassigned) [Example 222]	0.05 to 0.2 µM
CO[C@@]1(C)CN(c2ccc3c(n2)CC[C@H](NC(=O)c2sc4nc(C)ccc4c2N)C3)C[C@@H]1N [Example 210, 3-amino-N-[(6S)-2-[(3S,4S)-4-amino-3-methoxy-3-methylpyrrolidin-1-yl]-5,6,7,8-tetrahydroquinolin-6-yl]-6-methylthieno[2,3-b]pyridine-2-carboxamide]	> 2 µM
Cc1ccc2c(N)c(C(=O)N[C@H]3COc4cc(N5CC[C@H]6CNC[C@H]65)cc(F)c4C3)sc2n1 [Example 220, N-[(3R)-7-[(3aS,6aS)-octahydropyrrolo[2,3-c]pyrrol-1-yl]-5-fluoro-3,4-dihydro-2H-1-benzopyran-3-yl]-3-amino-6-methylthieno[2,3-b]pyridine-2-carboxamide]	0.05 to 0.2 µM
Cc1ccc2c(N)c(C(=O)N[C@H]3COc4cc(N5C[C@H](OC(C)C)[C@@H](N)C5)ccc4C3)sc2n1 [Example 202, 3-amino-N-[(3R)-7-[(3S,4S)-3-amino-4-(propan-2-yloxy)pyrrolidin-1-yl]-3,4-dihydro-2H-1-benzopyran-3-yl]6-methylthieno[2,3-b]pyridine-2-carboxamide]	0.2 to 2 µM
CO[C@H]1CN(c2ccc3c(c2)CC[C@H](NC(=O)c2cnc4c(c2)C2CC2CN4)C3)C[C@@H]1N (stereo partly drawn) [Example 188, N-[(2S)-6-[(3S,4S)-3-amino-4-methoxypyrrolidin-1-yl]-1,2,3,4-tetrahydronaphthalen-2-yl]-5H,6H,6aH,7H,7aH-cyclopropa[c]1,8-naphthyridine-2-carboxamide]	> 2 µM
Cc1ccc2c(N)c(C(=O)N[C@H]3COc4cc(N5C[C@@H](N)CC[C@H]5C(F)(F)F)ccc4C3)sc2n1 [Example 245, 3-amino-N-[(3R)-7-[(2S,5S)-5-amino-2-(trifluoromethyl)piperidin-1-yl]-3,4-dihydro-2H-1-benzopyran-3-yl]-6-methylthieno[2,3-b]pyridine-2-carboxamide]	0.05 to 0.2 µM
Cc1ccc2c(N)c(C(=O)N[C@H]3COc4cc(N5CCC[C@@H]6CNC[C@@H]65)ccc4C3)sc2n1 [Example 242, N-[(3R)-7-[(4aR,7aR)-octahydro-1H-pyrrolo[3,4-b]pyridin-1-yl]-3 ,4-dihydro-2H-1-benzopyran-3-yl]-3-amino-6-methylthieno[2,3-b]pyridine-2-carboxamide]	0.05 to 0.2 µM
Cc1cc(C)c2c(N)c(C(=O)N[C@H]3COc4cc(N5CC[C@@H]6CNC[C@@H]65)ccc4C3)sc2n1 [Example 227, N-[(3R)-7-[(3aR,6aR)-octahydropyrrolo[2,3-c]pyrrol-1-yl]-3,4-dihydro-2H-1-benzopyran-3-yl]-3-amino-4,6-dimethylthieno[2,3-b]pyridine-2-carboxamide]	0.05 to 0.2 µM
Cc1cc(C)c2c(N)c(C(=O)N[C@H]3CCc4nc(N5CC[C@@H]6CNC[C@@H]65)ccc4C3)sc2n1 [Example 219, N-[(6S)-2-[(3aR,6aR)-octahydropyrrolo[2,3-c]pyrrol-1-yl]-5,6,7,8-tetrahydroquinolin-6-yl]-3-amino-4,6-dimethylthieno[2,3-b]pyridine-2-carboxamide]	0.05 to 0.2 µM
Cc1ccc2c(N)c(C(=O)N[C@H]3CCc4nc(N5CC[C@H]6CNC[C@H]65)ccc4C3)sc2n1 [Example 216, N-[(6S)-2-[(3aS,6aS)-octahydropyrrolo[2,3-c]pyrrol-1-yl}-5,6,7,8-tetrahydroquinolin-6-yl]-3-amino-6-methylthieno[2,3-b]pyridine-2-carboxamide]	0.2 to 2 µM
Cc1ccc2c(N)c(C(=O)N[C@H]3COc4cc(N5CC[C@H]6CC[C@@H](N)C[C@H]65)ccc4C3)sc2n1 [Example 231, N-[(3R)-7-[(3aR,6R,7aR)-6-amino-octahydro-1H-indol-1-yl]-3,4-dihydro-2H-1-benzopyran-3-yl]-3-amino-6-methylthieno[2,3-b]pyridine-2-carboxamide]	0.001 to 0.05 µM
CO[C@H]1CN(c2cc3c(cc2C#N)C[C@@H](NC(=O)c2sc4nc(C)ccc4c2N)CO3)C[C@@H]1N [Example 177, 3-amino-N-[(3R)-7-[(3S,4S)-3-amino-4-methoxypyrrolidin-1-yl]-6-cyano-3-4-dihydro-2H-1-benzopyran-3-yl]-6-methylthieno[2,3-b]pyridine-2-carboxamide]	0.05 to 0.2 µM
Cc1ccc2c(N)c(C(=O)N[C@H]3COc4cc(N5CC[C@@H]6CC[C@@H](N)C[C@@H]65)ccc4C3)sc2n1 [Example 233, N-[(3R)-7-[(3aS,6R,7aS)-6-amino-octahydro-1H-indol-1-yl]-3,4-dihydro-2H-1-benzopyran-3-yl]-3-amino-6-methylthieno[2,3-b]pyridine-2-carboxamide]	0.001 to 0.05 µM
CO[C@H]1CN(c2ccc3c(n2)CC[C@H](NC(=O)c2sc4nc(C)ccc4c2N)C3)C[C@]1(C)N [Example 239, 3-amino-N-[(6S)-2-[(3S,4S)-3-amino-4-methoxy-3-methylpyrrolidin-1-yl]-5,6,7,8-tetrahydroquinolin-6-yl]-6-methylthieno[2,3-b]pyridine-2-carboxamide]	> 2 µM
